Results taken from patent US4268510A, “1,3-Benzoxazine trichloromethyl derivatives, compositions and use” (Imperial Chemical Industries Limited, priority 1978, dated 1981).
In brackets after ≈: the same amount, converted by molar mass.

Tested on: methane production from ruminal fluid
Test: in vitro assay of inhibition of methane production from ruminal fluid
Assay type: cell-based, steers (pooled rumen fluid)
Conditions: at 1 μg./ml.; in vitro rumen fluid, 39° C., 15-16 hours
Experimental: Rumen fluid is collected on a regular routine basis from two steers, which are fed on the same hay-plus-concentrate diet. Sampling time is standardised as far as possible, and the fluid from the two animals is pooled on a 50/50 basis. Large particulate matter is removed by filtering the pooled fluid through four layers of muslin cloth. The filtrate is then diluted in the ratio of one volume of filtrate to three volumes of an artificial rumen fluid (prepared as described by G. L. Bales et al., Journal of Dairy Science, 1976, volume 59, page 1850, but omitting acetic acid), and the pH of the mixture is adjusted to 6.9-7.0 with saturated aqueous sodium carbonate solution. Aliquots (50 ml.) of this mixture are dispensed into 100 ml. conical flasks containing dried ground hay (0.5 g.), and each flask is used to test a test compound at a particular concentration.
The test compound is added to the conical flask as a solution in ethanol, the flask is flushed with carbon dioxide gas, stoppered with a suba-seal, and incubated at 39° C. for 15-16 hours. After one hour, a narrow bore needle is inserted through the suba-seal to relieve the gas pressure, and the needle is withdrawn 30 minutes before the incubation is ended. Fermentation is then stopped by placing the flask in ice, and after 15 minutes cooling, the gas over the liquid is analysed for methane by gas chromatography, and the concentration of the test compound required to produce a 50% reduction in methane production (ED50 in μg./ml.) is calculated.
The test of methane inhibition described in Example 12 was repeated for various other compounds, to give the results shown below. The results are expressed as the percentage inhibition of methane production caused by 1 μg./ml. of a test compound, except for those compounds indicated by *, for which 3 μg./ml. was used.

SMILES	inhibition at 1 µg/mL [%]
CC(C)OC(=O)C1OC(C(Cl)(Cl)Cl)Nc2ccccc21 (centres unmarked) [drawing 9; R1=H; R3=H; R11=i-C3 H7 O . CO, isopropyl 1,2-dihydro-2-trichloromethyl-4H-benzo[d]-[1,3]-oxazine-4-carboxylate]	37
O=C1NC(C(Cl)(Cl)Cl)Oc2ccc(S(=O)(=O)O)cc21 (centres unmarked) [drawing 8; R1=H; R3=SO3 H; R5=H]	11
Cc1cccc2c1NC(C(Cl)(Cl)Cl)OC2 (centres unmarked) [drawing 9; R1=CH3; R3=H; R11=H, 1,2-dihydro-8-methyl-2-trichloromethyl-4H-benzo[d]-[1,3]-oxazine]	100
CCCOC(=O)C1OC(C(Cl)(Cl)Cl)Nc2ccccc21 (centres unmarked) [drawing 9; R1=H; R3=H; R11=n-C3 H7 O . CO, propyl 1,2-dihydro-2-trichloromethyl-4H-benzo[d]-[1,3]-oxazine-4-carboxylate]	31
O=C(Nc1ccccc1)C1OC(C(Cl)(Cl)Cl)Nc2ccccc21 (centres unmarked) [drawing 9; R1=H; R3=H; R11=C6 H5 NH . CO, N-phenyl 1,2-dihydro-2-trichloromethyl-4H-benzo[d]-[1,3]-oxazine-4-carboxamide]	57
Clc1ccc2c(c1)COC(C(Cl)(Cl)Cl)N2 (centres unmarked) [drawing 9; R1=H; R3=Cl; R11=H, 6-chloro-1,2-dihydro-2-trichloromethyl-4H-benzo[d]-[1,3]-oxazine]	100
COC(=O)C1OC(C(Cl)(Cl)Cl)Nc2ccccc21 (centres unmarked) [drawing 9; R1=H; R3=H; R11=CH3 O . CO, methyl 1,2-dihydro-2-trichloromethyl-4H-benzo[d]-[1,3]-oxazine-4-carboxylate]	46
CCCCOC(=O)C1OC(C(Cl)(Cl)Cl)Nc2ccccc21 (centres unmarked) [drawing 9; R1=H; R3=H; R11=n-C4 H9 O . CO, butyl 1,2-dihydro-2-trichloromethyl-4H-benzo[d]-[1,3]-oxazine-4-carboxylate]	12
Nc1ccc2c(c1)C(=O)NC(C(Cl)(Cl)Cl)O2 (centres unmarked) [drawing 8; R1=H; R3=NH2; R5=H, 6-amino-3,4-dihydro-2-trichloromethyl-2H-benzo[e]-[1,3]-oxazin-4-one]	98
O=C1NC(C(Cl)(Cl)Cl)Oc2ccc(C=NO)cc21 (centres unmarked) [drawing 8; R1=H; R3=HO . N:CH; R5=H, 3,4-dihydro-6-hydroxyiminomethyl-2-trichloromethyl-2-H-benzo[e]-[1,3]-oxazin-4-one]	41
O=C(O)c1cc(C(=O)O)c2c(c1)C(=O)NC(C(Cl)(Cl)Cl)O2 (centres unmarked) [drawing 8; R1=COOH; R3=COOH; R5=H, 3,4-dihydro-4-oxo-2-trichloromethyl-2H-benzo[e]-[1,3]-oxazine-6,8-dicarboxylic acid]	38
Cc1ccc(S(=O)(=O)Nc2ccc3c(c2)C(=O)NC(C(Cl)(Cl)Cl)O3)cc1 (centres unmarked) [3,4-dihydro-6-tosylamino-2-trichloromethyl-2H-benzo[e]-[1,3]-oxazin-4-one]	94
CC(=O)Oc1ccc2c(c1)COC(C(Cl)(Cl)Cl)N2 (centres unmarked) [drawing 9; R1=H; R3=CH3 CO . O; R11=H, 6-acetoxy-1,2-dihydro-2-trichloromethyl-4H-benzo[d]-[1,3]-oxazine]	30
CC(=O)Nc1ccc2c(c1)C(=O)NC(C(Cl)(Cl)Cl)O2 (centres unmarked) [drawing 8; R1=H; R3=CH3 CONH; R5=H, 6-acetamido-3,4-dihydro-2-trichloromethyl-2H-benzo[e]-[1,3]-oxazin-4-one]	96
CN1C(=O)c2ccccc2OC1C(Cl)(Cl)Cl (centres unmarked) [drawing 8; R1=H; R3=H; R5=CH3, 3,4-dihydro-3-methyl-2-trichloromethylbenzo[e]-[1,3]-oxazin-4-one]	100

Same assay, conditions: at 3 μg./ml.; in vitro rumen fluid, 39° C., 15-16 hours; read-out: % Methane Inhibition (compounds indicated by *)

SMILES	inhibition at 3 µg/mL [%]
O=C(O)c1ccc2c(c1)C(=O)NC(C(Cl)(Cl)Cl)N2 (centres unmarked) [drawing 10; R3=COOH; R5=H; R6=H, 1,2-dihydro-4-oxo-2-trichloromethylquinazoline-6-carboxylic acid]	5
O=C1NC(C(Cl)(Cl)Cl)Oc2ccc(NCc3ccc(Cl)cc3)cc21 (centres unmarked) [6-p-chlorobenzylamino-3,4-dihydro-2-tichloromethyl-2H-benzo[e]-[1,3]-oxazin-4l-one]	86
CCOC(=O)c1ccc2c(c1)C(=O)NC(C(Cl)(Cl)Cl)N2 (centres unmarked) [drawing 10; R3=C2 H5 O . CO; R5=H; R6=H, ethyl 1,2-dihydro-4-oxo-2-trichloromethylquinazoline-6-carboxylate]	71

Same assay, conditions: in vitro, diluted rumen fluid with dried ground hay, pH 6.9-7.0, 39° C., 15-16 hours; read-out: ED50, concentration of the test compound required to produce a 50% reduction in methane production

IC50 [µg/mL]	SMILES
0.3 (≈ 1 µM)	O=C1NC(C(Cl)(Cl)Cl)Nc2ccc(Cl)cc21 (centres unmarked) [drawing 5; R3=Cl; R5=H; R6=H]
0.3 (≈ 1.13 µM)	O=C1NC(C(Cl)(Cl)Cl)Nc2ccccc21 (centres unmarked) [drawing 5; R3=H; R5=H; R6=H, 1,2-dihydro-2-trichloromethylquinazolin-4-one]
1 (≈ 2.73 µM)	CCCCOC(=O)c1ccc2c(c1)C(=O)NC(C(Cl)(Cl)Cl)O2 (centres unmarked) [drawing 6; R3=CH3 (CH2)3 O . CO; R5=H, butyl 3,4-dihydro-4-oxo-2-trichloromethyl-2H-benzo[e]-[1,3]-oxazine-6-carboxylate]
3 (≈ 9.24 µM)	COC(=O)c1ccc2c(c1)C(=O)NC(C(Cl)(Cl)Cl)O2 (centres unmarked) [drawing 6; R3=CH3 O . CO; R5=H, methyl 3,4-dihydro-4-oxo-2-trichloromethyl-2H-benzo[e]-[1,3]-oxazine-6-carboxylate]
0.3 (≈ 1.07 µM)	CN1c2ccccc2C(=O)NC1C(Cl)(Cl)Cl (centres unmarked) [drawing 5; R3=H; R5=H; R6=CH3]
3 (≈ 9.66 µM)	COc1ccc2c(c1)C(=O)N(C)C(C(Cl)(Cl)Cl)O2 (centres unmarked) [drawing 6; R3=CH3 O; R5=CH3, 3,4-dihydro-6-methoxy-3-methyl-2-trichloromethyl-2H-benzo[e]-[1,3]-oxazin-4-one]
1 (≈ 2.37 µM)	O=C(Oc1ccc2c(c1)C(=O)NC(C(Cl)(Cl)Cl)O2)c1ccc(Cl)cc1 (centres unmarked) [drawing 6; R3=p-Cl . C6 H4 CO . O; R5=H, 6-p-chlorobenzoyloxy-3,4-dihydro-2-trichloromethyl-2H-benzo[e]-[1,3]-oxazin-4-one]
0.3 (≈ 0.969 µM)	NC(=O)c1ccc2c(c1)C(=O)NC(C(Cl)(Cl)Cl)O2 (centres unmarked) [drawing 6; R3=NH2 CO; R5=H, 3,4-dihydro-4-oxo-2-trichloromethyl-2H-benzo[e]-[1,3]-oxazine-6-carboxamide]
1 (≈ 3.58 µM)	CN1C(=O)c2ccccc2NC1C(Cl)(Cl)Cl (centres unmarked) [drawing 5; R3=H; R5=CH3; R6=H]
0.3 (≈ 1.06 µM)	COc1ccc2c(c1)COC(C(Cl)(Cl)Cl)N2 (centres unmarked) [drawing 7; R3=CH3 O, 1,2-dihydro-6-methoxy-2-trichloromethyl-4H-benzo[d]-[1,3]-oxazine]
1 (≈ 3.24 µM)	CC(=O)N1C(=O)c2ccccc2OC1C(Cl)(Cl)Cl (centres unmarked) [drawing 6; R3=H; R5=CH3 CO, 3-acetyl-3,4-dihydro-2-trichloromethyl-2H-benzo[e]-[1,3]-oxazin-4-one]
1 (≈ 3.21 µM)	O=C1NC(C(Cl)(Cl)Cl)Oc2ccc([N+](=O)[O-])cc21 (centres unmarked) [drawing 6; R3=NO2; R5=H]
3 (≈ 9.66 µM)	O=C1NC(C(Cl)(Cl)Cl)Nc2ccc([N+](=O)[O-])cc21 (centres unmarked) [drawing 5; R3=NO2; R5=H; R6=H, 1,2-dihydro-6-nitro-2-trichloromethylquinazolin-4-one]
3 (≈ 8.86 µM)	CCCCOc1ccc2c(c1)C(=O)NC(C(Cl)(Cl)Cl)O2 (centres unmarked) [drawing 6; R3=CH3 (CH2)3 O; R5=H, 6-butyloxy-3,4-dihydro-2-trichloromethyl-2H-benzo[e]-[1,3]-oxazin-4-one]
0.3 (≈ 0.886 µM)	CCC(=O)Oc1ccc2c(c1)C(=O)NC(C(Cl)(Cl)Cl)O2 (centres unmarked) [drawing 6; R3=C2 H5 CO . O; R5=H, 3,4-dihydro-6-propionyloxy-2-trichloromethyl-2H-benzo[e]-[1,3]-oxazin-4-one]
0.5 (≈ 1.7 µM)	O=CN1C(=O)c2ccccc2OC1C(Cl)(Cl)Cl (centres unmarked) [drawing 6; R3=H; R5=HCO, 3-formyl-3,4-dihydro-2-trichloromethyl-2H-benzo[e]-[1,3]-oxazin-4-one]
0.5 (≈ 1.77 µM)	O=C1NC(C(Cl)(Cl)Cl)Oc2ccc(O)cc21 (centres unmarked) [drawing 6; R3=HO; R5=H, 3,4-dihydro-6-hydroxy-2-trichloromethyl-2H-benzo[e]-[1,3]-oxazin-4-one]
1 (≈ 3.96 µM)	ClC(Cl)(Cl)C1Nc2ccccc2CO1 (centres unmarked) [drawing 7; R3=H, 1,2-dihydro-2-trichloromethyl-4H-benzo[d]-[1,3]-oxazine]

SMILES	IC50 [µg/mL]
CC(=O)Oc1ccc2c(c1)C(=O)NC(C(Cl)(Cl)Cl)O2 (centres unmarked) [drawing 6; R3=CH3 CO . O; R5=H, 6-acetoxy-3,4-dihydro-2-trichloromethyl-2H-benzo[e]-[1,3]-oxazin-4-one]	0.3 (≈ 0.924 µM)
CC(=O)Oc1ccc2c(c1)C(=O)N(C(C)=O)C(C(Cl)(Cl)Cl)O2 (centres unmarked) [drawing 6; R3=CH3 CO . O; R5=CH3 CO, 6-acetoxy-3-acetyl-3,4-dihydro-2-trichloromethyl-2H-benzo[e]-[1,3]-oxazin-4-one]	1 (≈ 2.73 µM)
